In patent US6482804B1, “Compositions and methods for delivery of genetic material” (Wyeth, priority 1997, dated 2002):

Test: Scanning and transmission electron microscopy (SEM/TEM) of surfactant:DNA complexes
Assay type: physicochemical
Conditions: aqueous formulations
Protocol: Scanning electron microscopy (SEM) and transmission electron microscopy (TEM) were employed to visualize the resulting complexes formed by the benzylammonium-containing surfactant and polynucleic acid compositions of this invention.
Each formulation containing 8.71% sucrose w/v and 5 mM phosphate buffer at pH6.7±0.5.
ii. […] However, upon addition of DNA, vesicular complexes are formed, when observed by SEM.
iii. […] Similar particle distribution was found at both concentrations of DNA, but in larger numbers with higher DNA concentrations. Larger particles in higher DNA concentrations appear to have derived from the fusion of several 50 nm particles. Formation of larger particles was dependent on the concentration of DNA in the formulation. These particles were visualized by shadow casting in SEM analysis using carbon, and were visible by short (10 second) exposure to the contrasting agent uranyl acetate in TEM analysis. The TEMs show membranous structures typical of liposomes described in literature.
As controls, SEM of DNA alone and benzalkonium chloride alone in aqueous solutions were performed. Vesicular structures are found only when aqueous solutions of DNA and benzalkonium chloride are mixed. TEMs show structures that are vesicular and some are multilamellar. Membranous structures found in these TEMs are consistent with the formation of lamellar vesicular complexes in liposomes.

benzalkonium chloride
structures seen by SEM/TEM: does not form vesicular complexes
